From PubChem BioAssay (NCI)
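Results reflect a 48-hour exposure of cells in 96-well plates to compound at five concentrations. TGI: total growth inhibition.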

Assays:
Test in all cases: growth of human tumour cells (NCI), 48 h
786-0 renal = tested on: 786-0 renal
A498 renal = tested on: A498 renal
A549 NSCLC = tested on: A549 NSCLC
ACHN renal = tested on: ACHN renal
BT-549 breast = tested on: BT-549 breast
CAKI-1 renal = tested on: CAKI-1 renal
CCRF-CEM leukemia = tested on: CCRF-CEM leukemia
COLO 205 colon = tested on: COLO 205 colon
DU-145 prostate = tested on: DU-145 prostate
EKVX NSCLC = tested on: EKVX NSCLC
HCC-2998 colon = tested on: HCC-2998 colon
HCT-116 colon = tested on: HCT-116 colon
HCT-15 colon = tested on: HCT-15 colon
HL-60(TB) leukemia = tested on: HL-60(TB) leukemia
HOP-62 NSCLC = tested on: HOP-62 NSCLC
HOP-92 NSCLC = tested on: HOP-92 NSCLC
HS 578T breast = tested on: HS 578T breast
HT29 colon = tested on: HT29 colon
IGROV1 ovarian = tested on: IGROV1 ovarian
K-562 leukemia = tested on: K-562 leukemia
LOX IMVI melanoma = tested on: LOX IMVI melanoma
M14 melanoma = tested on: M14 melanoma
MALME-3M melanoma = tested on: MALME-3M melanoma
MCF7 breast = tested on: MCF7 breast
MDA-MB-231 breast = tested on: MDA-MB-231 breast
MDA-MB-435 = tested on: MDA-MB-435
MDA-N = tested on: MDA-N
MOLT-4 leukemia = tested on: MOLT-4 leukemia
NCI-H226 lung = tested on: NCI-H226 lung
NCI-H23 lung = tested on: NCI-H23 lung
NCI-H460 lung = tested on: NCI-H460 lung
NCI-H522 lung = tested on: NCI-H522 lung
NCI/ADR-RES ovarian = tested on: NCI/ADR-RES ovarian
OVCAR-3 ovarian = tested on: OVCAR-3 ovarian
OVCAR-4 ovarian = tested on: OVCAR-4 ovarian
OVCAR-5 ovarian = tested on: OVCAR-5 ovarian
OVCAR-8 ovarian = tested on: OVCAR-8 ovarian
PC-3 prostate = tested on: PC-3 prostate
RPMI-8226 leukemia = tested on: RPMI-8226 leukemia
RXF 393 renal = tested on: RXF 393 renal
SF-268 CNS = tested on: SF-268 CNS
SF-295 CNS = tested on: SF-295 CNS
SF-539 CNS = tested on: SF-539 CNS
SK-MEL-2 melanoma = tested on: SK-MEL-2 melanoma
SK-MEL-28 melanoma = tested on: SK-MEL-28 melanoma
SK-MEL-5 melanoma = tested on: SK-MEL-5 melanoma
SN12C renal = tested on: SN12C renal
SNB-19 CNS = tested on: SNB-19 CNS
SNB-75 CNS = tested on: SNB-75 CNS
SR leukemia = tested on: SR leukemia
SW-620 colon = tested on: SW-620 colon
T-47D breast = tested on: T-47D breast
TK-10 renal = tested on: TK-10 renal
U251 CNS = tested on: U251 CNS
UACC-257 melanoma = tested on: UACC-257 melanoma
UACC-62 melanoma = tested on: UACC-62 melanoma
KM12 colon = tested on: KM12 colon
SK-OV-3 ovarian = tested on: SK-OV-3 ovarian
UO-31 renal = tested on: UO-31 renal

With `O=c1oc2c(Br)c(O)c(Br)cc2c2ccccc12` as the compound, how does the TGI (786-0 renal) read?
Its TGI is greater than 100 µM.

What about the TGI (A498 renal) of the same compound?
The TGI was 58.5 µM.

And the TGI (A549 NSCLC)?
The TGI was 87.1 µM.

And the TGI (ACHN renal)?
The TGI was greater than 100 µM.

What about the TGI (BT-549 breast) of the same compound?
The TGI was 75.3 µM.

And the TGI (CAKI-1 renal)?
The TGI was 31.1 µM.

What about the TGI (CCRF-CEM leukemia) of the same compound?
The TGI was 65.4 µM.

And the TGI (COLO 205 colon)?
Its TGI is greater than 100 µM.

What about the TGI (DU-145 prostate) of the same compound?
The TGI was 70.8 µM.

And the TGI (EKVX NSCLC)?
Its TGI is 67.4 µM.

What about the TGI (HCC-2998 colon) of the same compound?
The TGI was 72.4 µM.

And the TGI (HCT-116 colon)?
Its TGI is 92.6 µM.

What about the TGI (HCT-15 colon) of the same compound?
The TGI was 42.9 µM.

What about the TGI (HL-60(TB) leukemia) of the same compound?
Its TGI is 52.3 µM.

And the TGI (HOP-62 NSCLC)?
The TGI was greater than 100 µM.

And the TGI (HOP-92 NSCLC)?
The TGI was 74.6 µM.

And the TGI (HS 578T breast)?
The TGI was 66.2 µM.

What about the TGI (HT29 colon) of the same compound?
The TGI was greater than 100 µM.

What about the TGI (IGROV1 ovarian) of the same compound?
Its TGI is greater than 100 µM.

What about the TGI (K-562 leukemia) of the same compound?
The TGI was 50.9 µM.

What about the TGI (LOX IMVI melanoma) of the same compound?
The TGI was 68.9 µM.

What about the TGI (M14 melanoma) of the same compound?
Its TGI is greater than 100 µM.

And the TGI (MALME-3M melanoma)?
Its TGI is 64.8 µM.

What about the TGI (MCF7 breast) of the same compound?
The TGI was 48.7 µM.

And the TGI (MDA-MB-231 breast)?
The TGI was 66.1 µM.

And the TGI (MDA-MB-435)?
The TGI was greater than 100 µM.

What about the TGI (MDA-N) of the same compound?
Its TGI is greater than 100 µM.

And the TGI (MOLT-4 leukemia)?
Its TGI is 67.1 µM.

And the TGI (NCI-H226 lung)?
Its TGI is 80.5 µM.

What about the TGI (NCI-H23 lung) of the same compound?
Its TGI is 38.6 µM.

And the TGI (NCI-H460 lung)?
Its TGI is 57 µM.

What about the TGI (NCI-H522 lung) of the same compound?
The TGI was 51.3 µM.

And the TGI (NCI/ADR-RES ovarian)?
Its TGI is 78.1 µM.

What about the TGI (OVCAR-3 ovarian) of the same compound?
Its TGI is 40.7 µM.

And the TGI (OVCAR-4 ovarian)?
Its TGI is 89.9 µM.

What about the TGI (OVCAR-5 ovarian) of the same compound?
Its TGI is greater than 100 µM.

What about the TGI (OVCAR-8 ovarian) of the same compound?
Its TGI is greater than 100 µM.

What about the TGI (PC-3 prostate) of the same compound?
Its TGI is 50.4 µM.

What about the TGI (RPMI-8226 leukemia) of the same compound?
Its TGI is 75.4 µM.

What about the TGI (RXF 393 renal) of the same compound?
Its TGI is greater than 100 µM.

What about the TGI (SF-268 CNS) of the same compound?
The TGI was 69 µM.

What about the TGI (SF-295 CNS) of the same compound?
Its TGI is greater than 100 µM.

And the TGI (SF-539 CNS)?
Its TGI is 63.3 µM.

What about the TGI (SK-MEL-2 melanoma) of the same compound?
Its TGI is 62.7 µM.

What about the TGI (SK-MEL-28 melanoma) of the same compound?
The TGI was greater than 100 µM.

What about the TGI (SK-MEL-5 melanoma) of the same compound?
The TGI was 50.2 µM.

What about the TGI (SN12C renal) of the same compound?
The TGI was 84.4 µM.

And the TGI (SNB-19 CNS)?
Its TGI is 93.4 µM.

What about the TGI (SNB-75 CNS) of the same compound?
Its TGI is 78.9 µM.

And the TGI (SR leukemia)?
Its TGI is 71.6 µM.

What about the TGI (SW-620 colon) of the same compound?
Its TGI is greater than 100 µM.

What about the TGI (T-47D breast) of the same compound?
Its TGI is 96.5 µM.

And the TGI (TK-10 renal)?
Its TGI is greater than 100 µM.

What about the TGI (U251 CNS) of the same compound?
The TGI was 87.8 µM.

What about the TGI (UACC-257 melanoma) of the same compound?
The TGI was 61.7 µM.

What about the TGI (UACC-62 melanoma) of the same compound?
Its TGI is 50.5 µM.

With `C#CCn1c(=O)c(C)cn(/C(=C/C(=O)OCC)C(=O)OCC)c1=O` as the compound, how does the TGI (786-0 renal) read?
Its TGI is 19.4 µM.

What about the TGI (A498 renal) of the same compound?
The TGI was 31.5 µM.

What about the TGI (A549 NSCLC) of the same compound?
Its TGI is 32.4 µM.

And the TGI (ACHN renal)?
The TGI was 3.64 µM.

What about the TGI (BT-549 breast) of the same compound?
The TGI was 20.4 µM.

What about the TGI (CAKI-1 renal) of the same compound?
Its TGI is 3.18 µM.

What about the TGI (CCRF-CEM leukemia) of the same compound?
The TGI was 13.5 µM.

And the TGI (COLO 205 colon)?
The TGI was greater than 22.7 µM.

And the TGI (DU-145 prostate)?
The TGI was 29.5 µM.

What about the TGI (EKVX NSCLC) of the same compound?
The TGI was 21.1 µM.

What about the TGI (HCC-2998 colon) of the same compound?
Its TGI is 32.2 µM.

What about the TGI (HCT-116 colon) of the same compound?
The TGI was 13.7 µM.

What about the TGI (HCT-15 colon) of the same compound?
The TGI was 4.07 µM.

And the TGI (HL-60(TB) leukemia)?
Its TGI is greater than 100 µM.

What about the TGI (HOP-62 NSCLC) of the same compound?
The TGI was 30.5 µM.

What about the TGI (HOP-92 NSCLC) of the same compound?
The TGI was 8.5 µM.

What about the TGI (HS 578T breast) of the same compound?
Its TGI is 30 µM.

And the TGI (HT29 colon)?
The TGI was 4.88 µM.

And the TGI (IGROV1 ovarian)?
Its TGI is 13 µM.

What about the TGI (K-562 leukemia) of the same compound?
The TGI was greater than 69.4 µM.

And the TGI (KM12 colon)?
The TGI was 32 µM.

What about the TGI (LOX IMVI melanoma) of the same compound?
The TGI was 29.8 µM.

What about the TGI (M14 melanoma) of the same compound?
The TGI was 14 µM.

And the TGI (MALME-3M melanoma)?
The TGI was 4.07 µM.

And the TGI (MCF7 breast)?
The TGI was 13.7 µM.

What about the TGI (MDA-MB-231 breast) of the same compound?
The TGI was 36.3 µM.

And the TGI (MDA-MB-435)?
The TGI was 20.5 µM.

And the TGI (MDA-N)?
Its TGI is 43.8 µM.

What about the TGI (MOLT-4 leukemia) of the same compound?
Its TGI is 30.6 µM.

What about the TGI (NCI-H226 lung) of the same compound?
The TGI was 4.9 µM.

What about the TGI (NCI-H23 lung) of the same compound?
Its TGI is 23.4 µM.

What about the TGI (NCI-H460 lung) of the same compound?
Its TGI is 7.83 µM.

And the TGI (NCI/ADR-RES ovarian)?
The TGI was 10.6 µM.

What about the TGI (OVCAR-3 ovarian) of the same compound?
The TGI was 19.6 µM.

And the TGI (OVCAR-4 ovarian)?
Its TGI is 19.3 µM.

What about the TGI (OVCAR-5 ovarian) of the same compound?
The TGI was 16 µM.

What about the TGI (OVCAR-8 ovarian) of the same compound?
Its TGI is 5.56 µM.

What about the TGI (PC-3 prostate) of the same compound?
Its TGI is 25.7 µM.

And the TGI (RPMI-8226 leukemia)?
The TGI was greater than 27.7 µM.

What about the TGI (RXF 393 renal) of the same compound?
Its TGI is 2.01 µM.

What about the TGI (SF-268 CNS) of the same compound?
The TGI was 25.6 µM.

And the TGI (SF-295 CNS)?
The TGI was 40.5 µM.

What about the TGI (SF-539 CNS) of the same compound?
Its TGI is 4.77 µM.

What about the TGI (SK-MEL-2 melanoma) of the same compound?
Its TGI is 27.2 µM.

And the TGI (SK-MEL-28 melanoma)?
The TGI was 19.7 µM.

What about the TGI (SK-MEL-5 melanoma) of the same compound?
Its TGI is 32.9 µM.

And the TGI (SK-OV-3 ovarian)?
Its TGI is greater than 63.1 µM.

What about the TGI (SN12C renal) of the same compound?
The TGI was 26.2 µM.

And the TGI (SNB-19 CNS)?
Its TGI is 28.6 µM.

And the TGI (SNB-75 CNS)?
The TGI was 28.8 µM.

What about the TGI (SR leukemia) of the same compound?
Its TGI is greater than 100 µM.

And the TGI (SW-620 colon)?
The TGI was 4.16 µM.

And the TGI (T-47D breast)?
Its TGI is 20.3 µM.

What about the TGI (TK-10 renal) of the same compound?
The TGI was 4.29 µM.

What about the TGI (U251 CNS) of the same compound?
Its TGI is 25.2 µM.

And the TGI (UACC-257 melanoma)?
Its TGI is 28.8 µM.

And the TGI (UACC-62 melanoma)?
Its TGI is 24.8 µM.

And the TGI (UO-31 renal)?
Its TGI is 23.4 µM.
